Measured values taken from ChEMBL document CHEMBL1125944, “Imidazo[1,2-a]piperazines as mechanistic inhibitors of serine proteinases” (Bioorg Med Chem Lett, 1991).

Molecular target: T1, Neutrophil elastase (Homo sapiens, UniProt P08246)
T1 sequence (P08246 whole entry): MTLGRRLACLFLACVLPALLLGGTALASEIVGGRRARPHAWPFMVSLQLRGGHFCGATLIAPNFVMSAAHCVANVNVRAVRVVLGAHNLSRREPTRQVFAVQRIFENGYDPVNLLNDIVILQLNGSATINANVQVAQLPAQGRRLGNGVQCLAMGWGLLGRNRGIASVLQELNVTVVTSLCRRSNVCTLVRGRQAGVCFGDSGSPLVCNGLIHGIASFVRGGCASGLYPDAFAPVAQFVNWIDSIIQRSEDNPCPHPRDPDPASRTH
Test: Compound was tested for its inhibitory activity against human leukocyte Elastase (HLE)

- IC50: 8.74 µM
SMILES: CC(C)C1N=C2CN(C3Cc4ccccc4C3)C(=O)[C@H](C(C)C)N2C1(O)C(F)(F)F (stereo partly specified)
